27 compounds from patent US10213427B2 (Incyte Corporation, priority 2010, dated 2019) can be followed below.

Chain of FGFR3 enzyme (Millipore) (P22607 23-806): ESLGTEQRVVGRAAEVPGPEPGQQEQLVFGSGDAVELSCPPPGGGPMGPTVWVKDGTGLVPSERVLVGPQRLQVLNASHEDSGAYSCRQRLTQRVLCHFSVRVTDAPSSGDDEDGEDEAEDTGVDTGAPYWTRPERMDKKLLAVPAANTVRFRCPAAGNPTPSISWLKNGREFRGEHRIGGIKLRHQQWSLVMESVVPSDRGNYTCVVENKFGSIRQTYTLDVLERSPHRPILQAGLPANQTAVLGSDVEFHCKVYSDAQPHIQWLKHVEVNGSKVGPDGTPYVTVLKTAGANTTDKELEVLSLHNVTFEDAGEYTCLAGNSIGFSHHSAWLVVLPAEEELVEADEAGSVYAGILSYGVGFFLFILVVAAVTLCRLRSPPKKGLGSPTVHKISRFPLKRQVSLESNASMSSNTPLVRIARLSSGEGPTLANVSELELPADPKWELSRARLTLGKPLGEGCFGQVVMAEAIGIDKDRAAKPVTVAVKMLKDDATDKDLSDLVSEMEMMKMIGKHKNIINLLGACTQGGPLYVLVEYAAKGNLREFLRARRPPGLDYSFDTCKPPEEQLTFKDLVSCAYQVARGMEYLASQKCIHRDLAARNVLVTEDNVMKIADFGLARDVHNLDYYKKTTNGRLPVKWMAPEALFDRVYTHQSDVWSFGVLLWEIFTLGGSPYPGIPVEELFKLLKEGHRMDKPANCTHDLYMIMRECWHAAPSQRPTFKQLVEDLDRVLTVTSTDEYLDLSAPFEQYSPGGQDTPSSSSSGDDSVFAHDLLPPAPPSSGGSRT

This experiment addresses FGFR3 enzyme (Millipore) (Homo sapiens (Human), UniProt P22607). As to the kind of experiment: FGFR3 Enzymatic Assay. It is filed as biochemical. The following applies: FRET peptide phosphorylation, 140 μM ATP. On the procedure:
The inhibitor potency of compounds of the invention was measured in an enzyme assay that measures peptide phosphorylation using FRET measurements to detect product formation. Inhibitors were serially diluted in DMSO and a volume of 0.5 μL was transferred to the wells of a 384-well plate. A 10 μL volume of FGFR3 enzyme (Millipore) diluted in assay buffer (50 mM HEPES, 10 mM MgCl2, 1 mM EGTA, 0.01% Tween-20, 5 mM DTT, pH 7.5) was added to the plate and pre-incubated for 5-10 minutes. Appropriate controls (enzyme blank and enzyme with no inhibitor) were included on the plate. […] The plate was incubated at 25° C. for 1 hr. […] The plate was allowed to equilibrate for ˜1 hr before scanning the wells on a PheraStar plate reader.
GraphPad prism3 was used to analyze the data. The IC50 values were derived by fitting the data to the equation for a sigmoidal dose-response with a variable slope. Y=Bottom+(Top−Bottom)/(1+10^((Log IC50−X)*HillSlope)) where X is the logarithm of concentration and Y is the response.
As for `O=C(NCC(F)(F)F)Nc1cccc(-n2cnc3cc(-c4ccc(C(=O)NCC5CCCCC5O)cc4)ccc32)c1` (stereo not drawn) [Example 9], the 50% inhibitory concentration (IC50) is < 10 nM.

As for `O=C(NCC(F)(F)F)Nc1cccc(-c2cnc3cc(-c4cnn(C5CCN(C(=O)Nc6cccnc6)CC5)c4)cnn23)c1` [Example 38, N-Pyridin-3-yl-4-(4-{3-[3-({[(2,2,2-trifluoroethyl)amino]carbonyl}amino)phenyl]imidazo[1,2-b]pyridazin-7-yl}-1H-pyrazol-1-yl)piperidine-1-carboxamide], the concentration for half-maximal inhibition (IC50) is < 10 nM.

On to `N#CCC(c1ccccc1)n1cc(-c2cnn3c(-c4cccc(NC(=O)NCC(F)(F)F)c4)cnc3c2)cn1` (stereo not drawn) [Example 93, N-(3-{7-[1-(2-Cyano-1-phenylethyl)-1H-pyrazol-4-yl]imidazo[1,2-b]pyridazin-3-yl}phenyl)-N′-(2,2,2-trifluoroethyl)urea], for which the IC50 is < 10 nM.

As for `CC(C(=O)N1CCC(C#N)C1)n1cc(-c2cnn3c(-c4cccc(NC(=O)NCC(F)(F)F)c4)cnc3c2)cn1` (stereo not drawn) [Example 67, N-[3-(7-{1-[2-(3-Cyanopyrrolidin-1-yl)-1-methyl-2-oxoethyl]-1H-pyrazol-4-yl}imidazo[1,2-b]pyridazin-3-yl)phenyl]-N′-(2,2,2-trifluoroethyl)urea], the IC50 is < 10 nM.

With `CC(C(=O)N1CCC(O)CC1)c1ccc(-c2cnn3c(-c4cccc(NC(=O)NCC(F)(F)F)c4)cnc3c2)cc1` (stereo not drawn) [Example 102, N-[3-(7-{4-[2-(4-Hydroxypiperidin-1-yl)-1-methyl-2-oxoethyl]phenyl}imidazo[1,2-b]pyridazin-3-yl)phenyl]-N′-(2,2,2-trifluoroethyl)urea], the IC50 was < 10 nM.

Take `O=C(NCC(F)(F)F)Nc1cccc(-c2cnc3cc(-c4cnn(C5CCN(C(=O)N6CCCC6)CC5)c4)cnn23)c1` [Example 36, N-[3-(7-{1-[1-(Pyrrolidin-1-ylcarbonyl)piperidin-4-yl]-1H-pyrazol-4-yl}imidazo[1,2-b]pyridazin-3-yl)phenyl]-N′-(2,2,2-trifluoroethyl)urea]: the IC50 is < 10 nM.

With `CNC(=O)C(C)c1ccc(-c2cnn3c(-c4cccc(NC(=O)NCC(F)(F)F)c4)cnc3c2)cc1` (stereo not drawn) [Example 98, N-Methyl-2-(4-{3-[3-({[(2,2,2-trifluoroethyl)amino]carbonyl}amino)phenyl]imidazo[1,2-b]pyridazin-7-yl}phenyl)propanamide], the IC50 was < 10 nM.

`O=C(NCC(F)(F)F)Nc1cccc(-c2cnc3cc(-c4cnn(C5CCN(C(=O)CC6CCCO6)CC5)c4)cnn23)c1` (stereo not drawn) [Example 50, N-[3-(7-{1-[1-(tetrahydrofuran-2-ylacetyl)piperidin-4-yl]-1H-pyrazol-4-yl}imidazo[1,2-b]pyridazin-3-yl)phenyl]-N′-(2,2,2-trifluoroethyl)urea]: the IC50 is < 10 nM.

Regarding `CNC(=O)Nc1cccc(-c2cnc3cc(-c4cccc(C(=O)NC(C)c5ccccc5F)c4)cnn23)c1` (stereo not drawn) [Example 97, N-[1-(2-Fluorophenyl)ethyl]-3-[3-(3-{[(methylamino)carbonyl]amino}phenyl)imidazo[1,2-b]pyridazin-7-yl]benzamide], the IC50 was > 25 nM.

In the case of `O=C(NCC(F)(F)F)Nc1cccc(-c2cnc3cc(-c4cnn(C5CCN(C(=O)C6(O)CC6)CC5)c4)cnn23)c1` [Example 43, N-{3-[7-(1-{1-[(1-hydroxycyclopropyl)carbonyl]piperidin-4-yl}-1H-pyrazol-4-yl)imidazo[1,2-b]pyridazin-3-yl]phenyl}-N′-(2,2,2-trifluoroethyl)urea], the IC50 was < 10 nM.

For the compound `CN1CCC(CNC(=O)c2cccc(-c3ccc4c(c3)ncn4-c3cccc(NC(=O)NCC(F)(F)F)c3)c2)CC1` [Example 3, N-[(1-Methylpiperidin-4-yl)methyl]-3-{1-[3-({[(2,2,2-trifluoroethyl)amino]carbonyl}amino)phenyl]-1H-benzimidazol-5-yl}benzamide], the 50% inhibitory concentration (IC50) is < 10 nM.

With `CC(C(=O)N(C)C)c1ccc(-c2ccc3c(c2)ncn3-c2cccc(NC(=O)NCC(F)(F)F)c2)cc1` (stereo not drawn) [Example 15, N,N-Dimethyl-2-(4-{1-[3-({[(2,2,2-trifluoroethyl)amino]carbonyl}amino)phenyl]-1H-benzimidazol-5-yl}phenyl)propanamide], the half-inhibitory concentration (IC50) is < 10 nM.

`O=C(NCC(F)(F)F)Nc1cccc(-c2cnc3cc(-c4cnn(C5CCN(C(=O)CCC6CC6)CC5)c4)cnn23)c1` [Example 46, N-[3-(7-{1-[1-(3-Cyclopropylpropanoyl)piperidin-4-yl]-1H-pyrazol-4-yl}imidazo[1,2-b]pyridazin-3-yl)phenyl]-N′-(2,2,2-trifluoroethyl)urea]: the half-inhibitory concentration (IC50) was < 10 nM.

As to `O=C(NCC(F)(F)F)Nc1cccc(-n2cnc3cc(-c4cccc(C(=O)NCC5CC5)c4)ccc32)c1` [Example 1], the IC50 is < 10 nM.

For `CN1CCC(CNC(=O)c2ccc(-c3ccc4c(c3)ncn4-c3cccc(NC(=O)NCC(F)(F)F)c3)cc2)CC1` [Example 10, N-[(1-Methylpiperidin-4-yl)methyl]-4-{1-[3-({[(2,2,2-trifluoroethyl)amino]carbonyl}amino)phenyl]-1H-benzimidazol-5-yl}benzamide], the IC50 was < 10 nM.

For the compound `N#CCC(=O)N1CCC(n2cc(-c3cnn4c(-c5cccc(NC(=O)NCC(F)(F)F)c5)cnc4c3)cn2)CC1` [Example 44, N-[3-(7-{1-[1-(Cyanoacetyl)piperidin-4-yl]-1H-pyrazol-4-yl}imidazo[1,2-b]pyridazin-3-yl)phenyl]-N′-(2,2,2-trifluoroethyl)urea], the IC50 is < 10 nM.

As for `CC(C(=O)N1CCOCC1)n1cc(-c2cnn3c(-c4cccc(NC(=O)NCC(F)(F)F)c4)cnc3c2)cn1` (stereo not drawn) [Example 58, N-(3-{7-[1-(1-Methyl-2-morpholin-4-yl-2-oxoethyl)-1H-pyrazol-4-yl]imidazo[1,2-b]pyridazin-3-yl}phenyl)-N′-(2,2,2-trifluoroethyl)urea], the IC50 was < 10 nM.

For `Cn1cc(C(=O)N2CCC(n3cc(-c4ccc5c(c4)ncn5-c4cccc(NC(=O)NCC(F)(F)F)c4)cn3)CC2)cn1` [Example 23, N-{3-[5-(1-{1-[(1-Methyl-1H-pyrazol-4-yl)carbonyl]piperidin-4-yl}-1H-pyrazol-4-yl)-1H-benzimidazol-1-yl]phenyl}-N′-(2,2,2-trifluoroethyl)urea], the IC50 is < 10 nM.

For the compound `CC(C(=O)N1CCOCC1)c1ccc(-c2cnn3c(-c4cccc(NC(=O)NCC(F)(F)F)c4)cnc3c2)cc1` (stereo not drawn) [Example 105, N-(3-{7-[4-(1-Methyl-2-morpholin-4-yl-2-oxoethyl)phenyl]imidazo[1,2-b]pyridazin-3-yl}phenyl)-N′-(2,2,2-trifluoroethyl)urea], the half-maximal inhibitory concentration (IC50) is < 10 nM.

Turning to `CC(C(=O)N1CC(O)C1)c1ccc(-c2cnn3c(-c4cccc(NC(=O)NCC(F)(F)F)c4)cnc3c2)cc1` (stereo not drawn) [Example 104, N-[3-(7-{4-[2-(3-Hydroxyazetidin-1-yl)-1-methyl-2-oxoethyl]phenyl}imidazo[1,2-b]pyridazin-3-yl)phenyl]-N′-(2,2,2-trifluoroethyl)urea], the IC50 was < 10 nM.

Turning to `CC(C(=O)NCC1CCCO1)c1ccc(-c2ccc3c(c2)ncn3-c2cccc(NC(=O)NCC(F)(F)F)c2)cc1` (stereo not drawn) [Example 18, N-(Tetrahydrofuran-2-ylmethyl)-2-(4-{1-[3-({[(2,2,2-trifluoroethyl)amino]carbonyl}amino)phenyl]-1H-benzimidazol-5-yl}phenyl)propanamide], the half-maximal inhibitory concentration (IC50) was < 10 nM.

As to `CC(CC#N)n1cc(-c2cnn3c(-c4cccc(NC(=O)NCC(F)(F)F)c4)cnc3c2)cn1` (stereo not drawn) [Example 89, N-(3-{7-[1-(2-Cyano-1-methylethyl)-1H-pyrazol-4-yl]imidazo[1,2-b]pyridazin-3-yl}phenyl)-N′-(2,2,2-trifluoroethyl)urea], the IC50 was < 10 nM.

As for `O=C(NCC(F)(F)F)Nc1cccc(-n2cnc3cc(-c4cccc(C(=O)NCc5cccnc5)c4)ccc32)c1` [Example 5, N-(Pyridin-3-ylmethyl)-3-{1-[3-({[(2,2,2-trifluoroethyl)amino]carbonyl}amino)phenyl]-1H-benzimidazol-5-yl}benzamide], the IC50 is < 10 nM.

As for `Cn1ccc(S(=O)(=O)N2CCC(n3cc(-c4ccc5c(c4)ncn5-c4cccc(NC(=O)NCC(F)(F)F)c4)cn3)CC2)n1` [Example 24, N-{3-[5-(1-{1-[(1-Methyl-1H-pyrazol-3-yl)sulfonyl]piperidin-4-yl}-1H-pyrazol-4-yl)-1H-benzimidazol-1-yl]phenyl}-N′-(2,2,2-trifluoroethyl)urea], the IC50 is < 10 nM.

With `Cn1cc(C(=O)N2CCC(n3cc(-c4cnn5c(-c6cccc(NC(=O)NCC(F)(F)F)c6)cnc5c4)cn3)CC2)cn1` [Example 32, N-{3-[7-(1-{1-[(1-Methyl-1H-pyrazol-4-yl)carbonyl]piperidin-4-yl}-1H-pyrazol-4-yl)imidazo[1,2-b]pyridazin-3-yl]phenyl}-N′-(2,2,2-trifluoroethyl)urea], the IC50 was < 10 nM.

On to `CC(C(=O)NC1CCN(C)CC1)n1cc(-c2cnn3c(-c4cccc(NC(=O)NCC(F)(F)F)c4)cnc3c2)cn1` (stereo not drawn) [Example 71, N-(1-Methylpiperidin-4-yl)-2-(4-{3-[3-({[(2,2,2-trifluoroethyl)amino]carbonyl}amino)phenyl]imidazo[1,2-b]pyridazin-7-yl}-1H-pyrazol-1-yl)propanamide], for which the IC50 is < 10 nM.

`N#CCC(=O)N1CCC(n2cc(-c3ccc4c(c3)ncn4-c3cccc(NC(=O)NCC(F)(F)F)c3)cn2)CC1` [Example 28, N-[3-(5-{1-[1-(Cyanoacetyl)piperidin-4-yl]-1H-pyrazol-4-yl}-1H-benzimidazol-1-yl)phenyl]-N′-(2,2,2-trifluoroethyl)urea]: the IC50 is < 10 nM.

Broadly, the IC50 is the point on the concentration scale where inhibition reaches its midpoint.
